Experimental data reported in patent US6303591A, “21-hydroxy-6,19-oxidoprogesterone (21OH-6OP) and its use as medicament for treating excess of glucocorticoids” (Applied Research Systems ARS Holding NV, priority 1997, dated 2001).
“Also recorded” adds a separate entry of the source.

Legend:
[1] = biological target: T1, MR from rat kidney (kidney cytosol) (Rattus norvegicus, UniProt P22199); assay: competition with (^3 H)-ALDO for MR, rat kidney cytosol; format: binding
T1 sequence (P22199 1-981): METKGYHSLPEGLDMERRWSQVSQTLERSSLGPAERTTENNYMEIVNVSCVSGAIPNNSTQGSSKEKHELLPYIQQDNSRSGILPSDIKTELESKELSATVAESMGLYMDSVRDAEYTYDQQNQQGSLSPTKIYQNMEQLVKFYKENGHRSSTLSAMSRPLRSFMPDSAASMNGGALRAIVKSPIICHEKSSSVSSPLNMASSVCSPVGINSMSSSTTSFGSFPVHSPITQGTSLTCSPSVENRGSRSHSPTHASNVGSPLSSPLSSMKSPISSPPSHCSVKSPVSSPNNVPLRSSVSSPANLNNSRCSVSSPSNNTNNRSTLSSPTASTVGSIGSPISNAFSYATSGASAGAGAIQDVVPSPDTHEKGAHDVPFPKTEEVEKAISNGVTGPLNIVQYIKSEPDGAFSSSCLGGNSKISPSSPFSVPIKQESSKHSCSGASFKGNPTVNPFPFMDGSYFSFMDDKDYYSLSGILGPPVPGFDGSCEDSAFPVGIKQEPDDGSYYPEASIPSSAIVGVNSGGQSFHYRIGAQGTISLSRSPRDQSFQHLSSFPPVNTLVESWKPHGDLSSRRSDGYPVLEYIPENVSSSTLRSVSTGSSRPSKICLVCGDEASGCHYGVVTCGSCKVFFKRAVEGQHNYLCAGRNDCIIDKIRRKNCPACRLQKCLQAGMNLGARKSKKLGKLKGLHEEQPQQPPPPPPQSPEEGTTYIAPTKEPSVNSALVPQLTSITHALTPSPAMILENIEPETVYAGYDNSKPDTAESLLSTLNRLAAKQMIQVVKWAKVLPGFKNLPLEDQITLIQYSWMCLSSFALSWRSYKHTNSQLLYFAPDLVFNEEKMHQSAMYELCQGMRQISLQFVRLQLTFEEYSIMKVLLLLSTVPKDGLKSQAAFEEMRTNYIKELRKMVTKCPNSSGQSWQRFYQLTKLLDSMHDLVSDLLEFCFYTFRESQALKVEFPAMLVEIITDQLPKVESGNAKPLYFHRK
Procedure: Binding Assay: Adrenalectomized male Sprague-Dawley rats were bled to death by heart puncture. Cold 0.9% NaCI was injected profusely through the aorta until organs were completely blanched. Thymuses were used as a source of GR and kidneys as a source of MR. Homogenization and incubation conditions were performed as previously described, (14) and (15), respectively. Briefly, homogenates performed in cold TEGM buffer at pH 7.4 (0.1 M Tris-HCl, 10 mM EDTA, 10 mM α-mercaptoethanol, 20 mM Na2 MoO4, 25% glycerol, 0.1 mM PMSF, 2.0 TIU/ml aprotinin and 1 mg% Leupeptin) were centrifuged at 37,000 rev. for 30 min at 0° C. Supernatants from this centrifugation are referred to as "cytosol". […] (^3 H)-P4 binding to uterus PR was assayed on immature female rats according to Jordan et al (16).
Relative binding affinity (RBA) for partially purified CBG was determined by steroid competition for (^3 H)-B binding as described previously (14).
The displacement curve of 6,19-oxidoprogesterone is included for comparative purposes.

liver glycogen = liver glycogen deposition in vivo, adrenalectomized rats; design: species or system rat; conditions: FIG. 3-A; 100 μg steroid/100 g body weight
Procedure: FIG. 3: Biological Properties of 21OH-6OP: A) Glycogen storage in vivo: 100 μg steroid/100 g body weight of male rats were injected as indicated in Example 1. Liver glycogen was purified and quantified with Krisman's reagent (17). Controls were injected with vehicle. Results are expressed as means±SEM (n=6). (*): different from controls P<0.02. B) TAT induction in vitro: rat hepatocytes were incubated for 5 h in HAM-F12 medium in the presence of 100 nM steroid and TAT activity was measured. Results are expressed as percentage of enzyme activity (means±SEM, n=4) over controls incubated in the presence of vehicle. (*) different from controls P<0.01. C) Sodium-retaining activity: adrenalectomized rats were treated with the indicated dose of steroids. Results are expressed as the ratio of sodium-excretion rates of steroid-injected animals to the excretion rates of rats injected with vehicle.
Bioassay : Liver glycogen deposition was measured on adrenalectoniized male Sprague-Dawley rats (180-220 g) as follows: steroids were dissolved in ethanol/propylene glycol/0.9% NaCl solution (3:3:34) and 100 μg steroid/l00 g body weight were injected i.m. the previous night. On the morning of the experiment this dose was reinjected intraperitoneally. Three hours later the rats were killed by cervical dislocation and livers were immediately removed. Glycogen purification and quantification were carried out according to Krisman's method (17). Na^+ -retaining properties were measured as described (5). Tyrosine aminotransferase (TAT) was induced in rat hepatocytes isolated by the procedure of Fry et al (18). TAT activity was determined according to Granner and Tomkins (19).

## C[C@]12CC[C@H]3[C@@H](C[C@H]4OC[C@@]35CCC(=O)C=C45)[C@@H]1CC[C@@H]2C(=O)CO [21OH-6OP, 21-hydroxy-6,19-oxidoprogesterone]
[1]; kidney cytosol, 5 nM (^3 H)-ALDO, 1.0 μM RU28362
  competition with (^3 H)-ALDO for MR / interaction with MR: unable to cross-react with uterus-PR or kidney-MR; also recorded: does not compete efficiently with (^3 H)-ALDO for MR, even when a thousand fold excess was added; also recorded: no ability to interact with MR nor PR
[1]; vs 6,19-oxidopregnane skeleton, panel 2-C
  change of binding to MR by 21-hydroxyl introduction: does not improve the binding of the 6,19-oxidopregnane skeleton to MR
Liver glycogen
  GC response: liver glycogen: neither 6OP nor 21OH-6OP evoke these responses
